Laboratory results: US7767659B2, “Synthesis of naturally occurring ecteinascidins and related compounds” (Pharma Mar, S.A., priority 2002, dated 2010)
Where two headings read alike, the source gives them in different places.

Legend:
A-549 = experiment: cells; conditions: Homo sapiens, A549, 48 h
Procedure, shortened: (§1)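 Colorimetric SRB read (490 nm) on triplicate wells after 48 h at 37 °C, 5% CO2. Dose range 10 to 10^−8 μg/ml; 5×10^3 cells/well pre-attached 18 h.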

HT-29 = experiment: cells; conditions: Homo sapiens, HT-29, 48 h
Procedure, shortened: as §1

LoVo = experiment: cells; conditions: Homo sapiens, LoVo, 48 h
Procedure, shortened: as §1

DU-145 = experiment: Inhibition of cells growth by colorimetric assay (SRB); conditions: Homo sapiens, DU-145, 48 h
Procedure, shortened: as §1

HeLa-APL = experiment: as above; conditions: Homo sapiens, 48 h
Procedure, shortened: as §1

HeLa = experiment: as above; conditions: Homo sapiens, HeLa, 48 h
Procedure, shortened: as §1

IGROV-1 = experiment: as above; conditions: Homo sapiens, IGROV-1, 48 h
Procedure, shortened: as §1

IGROV-ET = experiment: as above; conditions: Homo sapiens, 48 h
Procedure, shortened: as §1

K-562 = experiment: as above; conditions: Homo sapiens, K562, 48 h
Procedure, shortened: as §1

LNCaP = experiment: as above; conditions: Homo sapiens, LNCaP, 48 h
Procedure, shortened: as §1

LoVo-Dox = experiment: as above; conditions: Homo sapiens, 48 h
Procedure, shortened: as §1

PANC-1 = experiment: as above; conditions: Homo sapiens, PANC-1, 48 h
Procedure, shortened: as §1

SK-BR-3 = experiment: as above; conditions: Homo sapiens, SK-BR-3, 48 h
Procedure, shortened: as §1

SK-MEL-28 = experiment: as above; conditions: Homo sapiens, SK-MEL-28, 48 h
Procedure, shortened: as §1

C=CCOc1c(C)c2c(c3c1CC1[C@H]4c5c(cc(C)c(OC)c5O)C[C@@H]([C@H](C#N)N1[C@H]3CO)N4C)OCO2 (stereo partly drawn) [compound 2]
GI50 (A-549; read-out: GI50 A549): 633 nM | CC50 (A-549; read-out: LC50 A549): 9110 nM | IC (TGI) (A-549; read-out: TGI A549): 1390 nM | GI50 (HT-29; read-out: GI50 HT29): 1060 nM | CC50 (HT-29; read-out: LC50 HT29): 19200 nM | IC (TGI) (HT-29; read-out: TGI HT29): 14200 nM | GI50 (LoVo; read-out: GI50 LOVO): 533 nM | CC50 (LoVo; read-out: LC50 LOVO): 1920 nM | IC (TGI) (LoVo; read-out: TGI LOVO): 1070 nM | GI50 (DU-145; read-out: GI50 DU145): 897 nM | CC50 (DU-145; read-out: LC50 DU145): 19200 nM | IC (TGI) (DU-145; read-out: TGI DU145): 3130 nM | GI50 (HeLa-APL; read-out: GI50 HELA-APL): 479 nM | CC50 (HeLa-APL; read-out: LC50 HELA-APL): 1490 nM | IC (TGI) (HeLa-APL; read-out: TGI HELA-APL): 844 nM | GI50 (HeLa; read-out: GI50 HELA): 763 nM | CC50 (HeLa; read-out: LC50 HELA): 9800 nM | IC (TGI) (HeLa; read-out: TGI HELA): 1450 nM | GI50 (IGROV-1; read-out: GI50 IGROV): 926 nM | CC50 (IGROV-1; read-out: LC50 IGROV): 18200 nM | IC (TGI) (IGROV-1; read-out: TGI IGROV): 2260 nM | GI50 (IGROV-ET; read-out: GI50 IGROV-ET): 1060 nM | CC50 (IGROV-ET; read-out: LC50 IGROV-ET): 19200 nM | IC (TGI) (IGROV-ET; read-out: TGI IGROV-ET): 19200 nM | GI50 (K-562; read-out: GI50 K562): 516 nM | CC50 (K-562; read-out: LC50 K562): 4790 nM | IC (TGI) (K-562; read-out: TGI K562): 1220 nM | GI50 (LNCaP; read-out: GI50 LNCAP): 592 nM | CC50 (LNCaP; read-out: LC50 LNCAP): 2760 nM | IC (TGI) (LNCaP; read-out: TGI LNCAP): 1110 nM | GI50 (LoVo-Dox; read-out: GI50 LOVO-DOX): 924 nM | CC50 (LoVo-Dox; read-out: LC50 LOVO-DOX): 19200 nM | IC (TGI) (LoVo-Dox; read-out: TGI LOVO-DOX): 19200 nM | GI50 (PANC-1; read-out: GI50 PANC-1): 890 nM | CC50 (PANC-1; read-out: LC50 PANC-1): 19200 nM | IC (TGI) (PANC-1; read-out: TGI PANC-1): 3260 nM | GI50 (SK-BR-3; read-out: GI50 SK-BR3): 778 nM | CC50 (SK-BR-3; read-out: LC50 SK-BR3): 19200 nM | IC (TGI) (SK-BR-3; read-out: TGI SK-BR3): 1750 nM | GI50 (SK-MEL-28; read-out: GI50 MEL-28): 598 nM | CC50 (SK-MEL-28; read-out: LC50 MEL-28): 5310 nM | IC (TGI) (SK-MEL-28; read-out: TGI MEL-28): 1270 nM

C=CCN1[C@@H]2c3c(cc(C)c(OC)c3O)C[C@H]1[C@H](C#N)N1C2[C@@H]2SC[C@]3(NCCc4c3[nH]c3ccc(O)cc43)C(=O)OC[C@H]1c1c3c(c(C)c(OC(C)=O)c12)OCO3 (stereo partly drawn) [compound 57]
GI50 (A-549; read-out: A549 GI50): 37.4 nM | CC50 (A-549; read-out: A549 LC50): 1500 nM | IC (TGI) (A-549; read-out: A549 TGI): 101 nM | GI50 (HT-29; read-out: HT29 GI50): 44.6 nM | CC50 (HT-29; read-out: HT29 LC50): 12200 nM | IC (TGI) (HT-29; read-out: HT29 TGI): 4380 nM | GI50 (LoVo; read-out: LOVO GI50): 85.9 nM | CC50 (LoVo; read-out: LOVO LC50): 877 nM | IC (TGI) (LoVo; read-out: LOVO TGI): 274 nM | GI50 (DU-145; read-out: DU145 GI50): 52.1 nM | CC50 (DU-145; read-out: DU145 LC50): 12200 nM | IC (TGI) (DU-145; read-out: DU145 TGI): 12200 nM | GI50 (HeLa-APL; read-out: HELA-APL GI50): 22.3 nM | CC50 (HeLa-APL; read-out: HELA-APL LC50): 115 nM | IC (TGI) (HeLa-APL; read-out: HELA-APL TGI): 50.5 nM | GI50 (HeLa; read-out: HELA GI50): 26.8 nM | CC50 (HeLa; read-out: HELA LC50): 112 nM | IC (TGI) (HeLa; read-out: HELA TGI): 56.4 nM | GI50 (IGROV-1; read-out: IGROV GI50): 28.8 nM | CC50 (IGROV-1; read-out: IGROV LC50): 6480 nM | IC (TGI) (IGROV-1; read-out: IGROV TGI): 66 nM | GI50 (IGROV-ET; read-out: IGROV-ET GI50): 252 nM | CC50 (IGROV-ET; read-out: IGROV-ET LC50): 1170 nM | IC (TGI) (IGROV-ET; read-out: IGROV-ET TGI): 544 nM | GI50 (K-562; read-out: K562 GI50): 8.82 nM | CC50 (K-562; read-out: K562 LC50): 12200 nM | IC (TGI) (K-562; read-out: K562 TGI): 88.8 nM | GI50 (LNCaP; read-out: LNCAP GI50): 15.1 nM | CC50 (LNCaP; read-out: LNCAP LC50): 69.3 nM | IC (TGI) (LNCaP; read-out: LNCAP TGI): 32.3 nM | GI50 (LoVo-Dox; read-out: LOVO-DOX GI50): 774 nM | CC50 (LoVo-Dox; read-out: LOVO-DOX LC50): 12200 nM | IC (TGI) (LoVo-Dox; read-out: LOVO-DOX TGI): 6220 nM | GI50 (PANC-1; read-out: PANC-1 GI50): 52.9 nM | CC50 (PANC-1; read-out: PANC-1 LC50): 12200 nM | IC (TGI) (PANC-1; read-out: PANC-1 TGI): 1340 nM | GI50 (SK-BR-3; read-out: SK-BR3 GI50): 6.42 nM | CC50 (SK-BR-3; read-out: SK-BR3 LC50): 382 nM | IC (TGI) (SK-BR-3; read-out: SK-BR3 TGI): 31.8 nM | GI50 (SK-MEL-28; read-out: MEL-28 GI50): 29.3 nM | CC50 (SK-MEL-28; read-out: MEL-28 LC50): 106 nM | IC (TGI) (SK-MEL-28; read-out: MEL-28 TGI): 55.6 nM
